The values below come from US20110224242A1, “STYRLYQUINOLINES, THEIR PROCESS OF PREPARATION AND THEIR THERAPEUTIC USES” (BIOALLIANCE PHARMA, priority 2008, published 2011).

pEC50, pIC50: −log10 of the molar value. Like-named read-outs stand apart in the source and are kept apart here. Some results are limits rather than exact numbers.

One series addresses T1, HBX2 HIV integrase (Human immunodeficiency virus type 1 group M subtype B, UniProt P04585).
T1 construct: contains the cDNA encoding the HBX2 HIV integrase; His tag (N, cleaved yes); made in house; host or cells: Escherichia coli BL21 (DE3)
As to the kind of experiment: 3' LTR processing assay. Format: biochemical. How it is done:
The pET-15b-IN plasmid contains the cDNA encoding the HBX2 HIV integrase. His-tagged integrase protein was overexpressed in Escherichia coli BL21 (DE3) and purified under native conditions. Briefly, at an OD of 0.8, fusion protein expression was induced in bacterial cultures by the addition of IPTG (1 mM). Cultures were incubated for 3 h at 37° C., of ter which cells were centrifuged. The cell pellet was resuspended in ice-cold buffer A [20 mM Ths-HCl (pH 8), 1 M NaCl, 4 mM β-mercaptoethanol, and 5 mM imidazole], treated with lysozyme for 1 h on ice, and sonicated. After centrifugation (30 min at 10 000 rpm), the supernatant was filtered (0.45 μm) and incubated for at least 2 h with Ni-NTA agarose beads (Pharmacia). The beads were washed twice with 10 volumes of buffer A, 10 volumes of buffer A with 50 mM imidazole, and 10 volumes of buffer A with 100 mM imidazole. His-tagged integrase was then eluted with buffer A supplemented with 50 μM ZnSO4 and 1 M imidazole. The integrase concentration was adjusted to 0.1 mg/mL in buffer A. The fusion protein was cleaved using thrombin and dialyzed overnight against 20 mM Ths-HCl (pH 8), 1 M NaCl, and 4 mM (3-mercaptoethanol. After removal of biotinylated thrombin by incubation with streptavidin-agarose magnetic beads (Novagen, Madison, Wis.), a second dialysis was performed for 2 h against 20 mM Ths-HCl (pH 8), 1 M NaCl, 4 mM mercaptoethanol, and 20% (v/v) ethylene glycol. Fractions were aliquoted and rapidly frozen at −80° C.
Oligonucleotides U5B (5′-[…]-3′), U5B-2 (5′-GTGTGGAAAATCTCTAGCA-3′), U5A (5′-[…]-3′) were purchased from Eurogentec (Liege, Belgium) and further purified on an 18% denaturing acrylamide/urea gel. For processing, strand transfer, 100 pmol of U5B, U5B-2, respectively, were radiolabeled using T4 polynucleotide kinase and 50 μCi of [γ-32P]ATP (3000 Ci/mmol). The T4 kinase was heat inactivated, and unincorporated nucleotides were removed using a Sephadex G-10 column (GE Healthcare). NaCl was added to a final concentration of 0.1 M, and complementary unlabeled strand USA was added to either U5B or U5B-2. The mixture was heated to 90° C. for 3 min, and the DNA was annealed by slow cooling.
Processing reaction was performed using U5A-U5B, in buffer containing 20 mM Tris (pH 7.2), 50 mM NaCl, 10 mM DTT, and 10 mM MgCl2. […] The reactions were stopped by phenol/chloroform extraction, and DNA products were precipitated with ethanol. The products were separated in TE containing 7 M urea and electrophoresed on an 18% denaturing acrylamide/urea gel. Gels were analyzed using a STORM Molecular Dynamics phosphorimager and quantified with Image Quant™ 4.1 software.

The subject of series [1] is wild type HIV-1 virus (NL 4.3 strains). In words: Antiviral activity assay on Hela P4 cells (beta-galactosidase, CPRG). In kind it is cell-based. The following applies: read-out: P4 IC50. How it is done: The antiviral activity is determined by infecting HelaP4 cells with a wild type HIV-1 virus (NL 4.3 strains at 3 ng) on cells in presence or absence of drugs. A serial dilution of drugs is done to evaluate the EC50. The effective concentration is the concentration of product at which virus replication is inhibited by 50 percent. After 48 hours incubation, the quantification is done by the evaluation of β-Galactosidase produced by the infected Hela P4 cells. The viral activity is evaluated by colorimethc assay, CPRG, followed by plate reading at 570 nm with a reference of 690 nm. The CPRG test is a colorimetric assay which allows to quantity the β-galactosidase produced by HIV-1 infected indicator cells (the β-Gal gene being under the control of the HIV-1 LTR).

The test system is the same in series [2]. In words: Antiviral activity assay CEM cells (p24 ELISA). The following applies: Human immunodeficiency virus 1, CCRF-CEM, read-out: CEM. In kind it is cell-based. As to the method:
The activity is determined by infecting CEM cells with a wild type HIV-1 virus (NL 4.3 strains at 3 ng) on cells in presence or absence of drugs. A serial dilution of drugs is done to evaluate the EC50. […] After 48 hours incubation, the quantification is done by the evaluation of the viral protein p24 with a commercial Elisa Kit. P24 is a protein essential to the replication virus cycle. The quantification of this enzyme is proportional to the amount of virus produced by the infected cells.

A further series is described as follows: in vitro. Format: cell-based. The following applies: human. As to the method: The cytotoxicity of compounds was evaluated using un-infected and infected Hel_a-P4 cell and CEM leukemia cells. CEM cell were obtained from the American Type Tissue Collection (Rockville, Md.).
A serial dilution of drugs is done to evaluate the cytotoxicity concentration and is identified by CC50 (concentration of drug which induces 50% of cytotoxicity)
The HeLa-P4 was cultured in the presence or absence of compounds for 2 days. After this time period, cells were cultivated with MTT for 3 hours, further the medium is removed. And the lysis buffer is incubated for 1 hour, followed by plate reading at 540 nm in a microplate reader.

Series [3] is described as follows: Stability in Hepes buffer 0.5 M pH 7.5 (UV spectrophotometry). The following applies: HEPES 0.5 M pH 7.5, 37°, 50 μM (SQE94 and 79 at 25 μM). Format: physicochemical. How it is done: 2.1. Hepes Buffer 0.5M, pH 7.5. 16 μl of drug at 25 mM, in 8 ml of Hepes Buffer. Different time points were done, Oh, 2 h, 4 h, 24 h, and 48 h.
Stability of the compounds was performed in HEPES Buffer 0.5 M (pH 7.5) at 37 O, at a concentration of 50 μM. Compounds SQE94 and 79 were tested at a concentration of 25 μM to avoid parasite precipitation phenomena. Typically, stock solutions of compounds in DMSO (25 mM) were diluted in HEPES Buffer. Dilutions were stored at 37° C., protected from light. Sampling was done at different time points. Samples were analyzed on an UV-spectrophotometer using a wavelength scan between 200 and 700 nm. Superposition of UV-spectra gives the qualitative aspect of the stability of the drug. Based on the Beer-Lambert law, percentage of degradation of the drug over time was calculated, when placed at the maximum absorption wavelength.

Series [4] is described as follows: Stability by HPLC in PEG400 and Vitamine E-TPGS/PEG 400 mixtures. Format: physicochemical. Particulars: over 24 hrs at room temperature in several mixtures of excipients. As to the method: The second stability assay consists in the assessment according to standard HPLC analysis protocols over 24 hrs in PEG400 and Vitamine E-TPGS/PEG 400 mixtures, by focusing on the evolution of the concentration and peak purity of the compound. Compounds were dissolved in appropriate amounts of solvent and let under stirring protected from light for 24 hrs. Aliquots were transferred into eppendorfs and centrifuged at 10 000 g for 10 min. Supernatants were collected and appropriately diluted in DMSO/mobile phase mixtures before HPLC analysis. The Waters HPLC analysis system equipped with an ultraviolet detector and a Waters Symmetry Shield C18 column of 2.1 mm×50 mm ([…]) was used. A mobile phase of water/acetic acid 0.1% (Solvant A): Acetonitrile/acetic acid 0.1% (solvent B) mixture or a water/trifluoroacetic acid 0.1% (Solvant A): Acetonitrile/trifluoroacetic acid 0.1% (solvent B) mixture in the case of compound FZ41 was pumped according to a binary gradient described below, at a flow rate of 0.4 ml/min.

Series [5] in a line: Chemical stability at pH between 1 and 7. Format: physicochemical. The following applies: over 24 hrs at pH between 1 and 7.
Series [6] is described as follows: Solubility of compound SQE94 in pH-buffers. Particulars: compound alone, room temperature, 24 h. Format: physicochemical. How it is done: Solubility of compound SQE94 was determined in pH-buffers at pH values of 5, 6 and 7. 10 mg of SQE94 are added to 10 ml of each pH-buffer. Each solution is stirred at room temperature, away from light, for 24 h, then centrifugated. The amount of dissolved compound is determined by HPLC analysis.

Setting [7] is: Human immunodeficiency virus 1, HeLaP4, HeLa P4 cells, HIV-1 NL 4.3, 48 hours.
Where [8] appears, read: CEM cells, HIV-1 NL 4.3, 48 hours, p24.
Where [9] appears, read: Human immunodeficiency virus 1, HeLaP4, 48 h.

As to `CC(=O)c1ccc(O)c2nc(/C=C/c3cc(O)c(O)cc3O)ccc12` [SQE74, 1-{2-[2(E)-(2,4,5-thhydroxyphenyl)-vinyl]-8-hydroxy-quinolin-5-yl}-ethanone], the pIC50 – broadly, the IC50 on a negative log10 scale, so that one unit is a factor of ten – against HBX2 HIV integrase was 6.65; in [1] (setting [7]), 4.93. Moreover, the pEC50 in [2] (setting [8]) was 6.46. Also, the IC50 (in general, the concentration that inhibits the measured activity by half) at 2 days in the series “in vitro” amounted to 11700 nM. Also, the “% of degradation” value in [3] (2 hrs) was determined as 17.2%; in [3] (4 hrs), 26.1%; in series [3] (24 hrs), 24.1%.
`CC(=O)c1ccc(O)c2nc(/C=C/c3cc(O)c(O)c(O)c3)ccc12` [SQE75, 1-{2-[2(E)-(3,4,5-thhydroxyphenyl)-vinyl]-8-hydroxy-quinolin-5-yl}-ethanone]: the pIC50 against HBX2 HIV integrase was 6.29; in [1] (setting [7]), 5.02. In addition, in series [2] (setting [8]), the pEC50 is 4.61. In “in vitro”, the IC50 at 2 days was > 100000 nM. Further, the “% of degradation” value in [3] (2 hrs) was 15.7%; in series [3] (4 hrs), 17.5%; in series [3] (24 hrs), 18.7%.
As for `CC(=O)c1ccc(O)c2nc(/C=C/c3cc(O)c(O)c([N+](=O)[O-])c3)ccc12` [SQE79, 1-{2-[2(E)-(3,4-dihydroxy, 5-nitrophenyl)-vinyl]-8-hydroxy-quinolin-5-yl}-ethanone], the results for the pIC50 (against HBX2 HIV integrase; in series [1] (setting [7])) were 6.65 and 5.34, respectively. For the same molecule, in series [2] (setting [8]), the pEC50 is 6.40. The molecule further returned an IC50 at 2 days in “in vitro” of 4200 nM. Besides, the “% of degradation” value is recorded as 19.2% in series [3] (2 hrs), 26.9% in series [3] (4 hrs) and 42.9% in series [3] (24 hrs).
In the case of `CC(=O)c1ccc(O)c2nc(/C=C/c3cc(O)c(O)c(Cl)c3)ccc12` [SQE86, (E)-1-(2-(3-chloro-4,5-dihydroxystyryl)-8-hydroxyquinolin-5-yl)ethanone], the melting point (as a rule, the temperature of the solid-liquid transition) lay in the range of 256 to 258 °C. This molecule showed a pIC50 at HBX2 HIV integrase of 6.28. Further, the pIC50 in [1] (setting [9]) is 6.00. Besides, the pEC50 in series [2] (48 h) is 6.30. Besides, the IC50 at 2 days in the series “in vitro” worked out at 15000 nM. Moreover, the “% of degradation” value in series [3] (2 hrs) stood at 12.1%. In series [3] (4 hrs), the “% of degradation” value turned out to be 12.5%. Moreover, the “% of degradation” value in series [3] (24 hrs) is 22.4%.
`CC(=O)c1ccc(O)c2nc(/C=C/c3ccc(O)c(C(=O)O)c3)ccc12` [SQE89, (E)-5-(2-(5-acetyl-8-hydroxyquinolin-2-yl)vinyl)-2-hydroxybenzoic acid] gave a melting point of 266 to 268 °C. Also, the pIC50 on HBX2 HIV integrase is 6.25. Also, in series [1] (setting [9]), the pIC50 was 6.00. Besides, half-maximal inhibition in “in vitro” (IC50 at 2 days) was put at 12600 nM. Moreover, in series [3] (2 hrs), the “% of degradation” value is given as <5%. Moreover, the “% of degradation” value in series [3] (4 hrs) was <5%. Also, in series [3] (24 hrs), the “% of degradation” value is given as <5%.
In the case of `COc1cc(/C=C/c2ccc3c(C(C)=O)ccc(O)c3n2)cc([N+](=O)[O-])c1O` [SQE94, 1-{2-[2(E)-(3-nitro, 4-hydroxy, 5-methoxyphenyl)-vinyl]-8-hydroxy-quinolin-5-yl}-ethanone], the pIC50 was 6.14 on HBX2 HIV integrase and 5.80 in [1] (setting [7]). Further, half-maximal inhibition in the series “in vitro” (IC50 at 2 days) required 56000 nM. The entries for the “% of degradation” value in [3] (2 hrs), in series [3] (4 hrs) and in series [3] (24 hrs) were <5%, 8.2% and 30.8%, respectively. Moreover, in series [4], the degradation result is on record as “less than 10%”. Moreover, the chemical profile stability entry in series [5] is “very stable chemical profiles”. The “Dissolved compound SQE94” value in series [6] (pH5 buffer) is 1.4 µg/mL; in series [6] (pH6 buffer) it was 1.4 µg/mL; in series [6] (pH7 buffer), 5.5 µg/mL.
For `CC(=O)c1ccc(O)c2nc(/C=C/c3ccc(C(=O)O)cc3[N+](=O)[O-])ccc12` [SQE96, 4-[2(E)-(5-Acetyl-8-hydroxy-quinolin-2-yl)-vinyl]-5-nitro-benzoic acid], the pIC50 at HBX2 HIV integrase was 5.64; in series [1] (setting [7]), 4.40. Besides, in the series “in vitro”, the IC50 at 2 days is > 100000 nM. The “% of degradation” value in series [3] (2 hrs), in [3] (4 hrs) and in series [3] (24 hrs) was <5% throughout.
